Measured values as given in patent publication EP4818159A1 (Kissei Pharmaceutical Co., Ltd., priority 2023, dated 2025).

Biological target: T1, human TSHR (Homo sapiens, UniProt P16473)
T1 construct: expressed in transfected cells
Test: Antagonist activity using TSH-induced cAMP production in human TSHR-stably expressing CHO cells
Assay type: cell-based
Conditions: human TSH final concentration of 50 ng/mL, cAMP production rate
Procedure: Measurement of antagonist activity using TSH-induced cAMP production in human TSHR-stably expressing CHO cells as an indicator
The gene sequence (reference number NM_000369.2) of human TSHR was inserted into the multiple cloning site of pcDNA3.1(+). The prepared plasmid vector was introduced into CHO cells using a lipofection method to establish human TSHR-stably expressing CHO cells. The obtained cells were seeded at 5 x 10^4 cells/well in a 96-well poly-D-lysine-coated plate, and cultured in an F12 culture medium containing 10% FBS, 400 µg/mL of G418, 50 U/mL of penicillin and 50 µg/mL of streptomycin under conditions of 37°C and 5% CO2 for 1 day. The culture medium was removed, and the cells were then washed twice with 100 µL of an assay buffer (Hanks' Balanced Salt Solution containing 20 mM HEPES and 1 mM IBMX) per well. 30 µL of an assay buffer containing a test compound was added to the well, and incubation was performed at room temperature for 15 minutes. Then, 30 µL of an assay buffer containing human TSH (a final concentration of 50 ng/mL, R&D Systems, Inc.) was added, and incubation was performed at 37°C for 1 hour. The supernatant was removed, a Lysis and Detection Buffer 2 (Cisbio) was added, and incubation was performed at room temperature for 1 hour to prepare a cell lysate. According to the instruction manual of a cAMP Gs HiRange kit (Cisbio), the cell lysate, d2-labeled cAMP and anti-cAMP Europium Cryptate labeled antibodies (Cisbio) were reacted in a 384-well white microplate. Then, a fluorescence intensity ratio (measurement wavelength 665 nm/620 nm) was measured using a multi-plate reader (PHERAstar FSX, BMG LABTECH Japan). The fluorescence intensity ratio of each sample was converted to a cAMP content using a standard curve. The cAMP content was converted as a percentage of the control value to calculate a cAMP production rate. The cAMP production rate was plotted against the test compound concentration using Prism (Graph Pad Software Inc.) to calculate the IC50 value. In the tables, IC50<3.0 µM was indicated as A, and 3.0 µM≤IC50<30 µM was indicated as B. If activity was observed but the IC50 value could not be calculated, it was indicated as C.

T1 sequence (P16473 21-764): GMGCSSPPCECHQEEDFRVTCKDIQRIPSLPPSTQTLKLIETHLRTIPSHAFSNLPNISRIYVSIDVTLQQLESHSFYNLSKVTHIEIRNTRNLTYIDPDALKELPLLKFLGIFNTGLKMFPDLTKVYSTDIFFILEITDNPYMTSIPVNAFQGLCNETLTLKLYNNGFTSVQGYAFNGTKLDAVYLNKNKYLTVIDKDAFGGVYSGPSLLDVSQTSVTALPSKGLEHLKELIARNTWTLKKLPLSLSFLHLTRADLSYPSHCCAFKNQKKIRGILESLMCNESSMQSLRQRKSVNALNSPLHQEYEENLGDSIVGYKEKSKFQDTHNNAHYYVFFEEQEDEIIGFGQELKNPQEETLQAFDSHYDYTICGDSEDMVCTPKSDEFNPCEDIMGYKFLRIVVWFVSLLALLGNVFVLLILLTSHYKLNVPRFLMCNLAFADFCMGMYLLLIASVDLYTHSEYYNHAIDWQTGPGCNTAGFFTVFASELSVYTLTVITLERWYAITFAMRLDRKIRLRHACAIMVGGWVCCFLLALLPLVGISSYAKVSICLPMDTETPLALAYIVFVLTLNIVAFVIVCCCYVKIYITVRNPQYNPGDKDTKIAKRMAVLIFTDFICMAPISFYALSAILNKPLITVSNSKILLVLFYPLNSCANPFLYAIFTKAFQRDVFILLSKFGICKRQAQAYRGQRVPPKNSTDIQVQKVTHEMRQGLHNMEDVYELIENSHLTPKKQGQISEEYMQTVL

Structure (SMILES) | IC50 [µM]
CN1C(=O)[C@H](N2CCOC2=O)Cc2cccc(Oc3cc(F)ccc3Cl)c21 [Example 25, (R)-3-(8-(2-chloro-5-fluorophenoxy)-1-methyl-2-oxo-1,2,3,4-tetrahydroquinoline-3-yl)oxazo lidine-2-one] | > 30
CN1C(=O)[C@H](NS(N)(=O)=O)Cc2cccc(Oc3cc(F)ccc3Cl)c21 [Example 23] | < 3
Cc1ccc2c(c1Oc1cc(F)ccc1Cl)N(C)C(=O)[C@H](NC(=O)N1CCOCC1)C2 [Example 19, (R)-N-(8-(2-chloro-5-fluorophenoxy)-1,7-dimethyl-2-oxo-1,2,3,4-tetrahydroquinoline-3-yl)m orpholine-4-carboxamide] | < 3
Cc1ccc2c(c1Oc1cc(F)ccc1Cl)N(C)C(=O)[C@H](NC(N)=O)[C@H]2O (relative stereo) [Example 21, 1-((3R^*,4S^*)-8-(2-chloro-5-fluorophenoxy)-4-hydroxy-1,7-dimethyl-2-oxo-1,2,3,4-tetrahydroquinoline-3-yl)urea] | < 3
CN1C(=O)C(C(N)=O)Cc2cc(NC(=O)OC3CCCC3)cc(Oc3ccccc3)c21 (stereo not drawn) [Example 1, cyclopentyl (3-carbamoyl-1-methyl-2-oxo-8-phenoxy-1,2,3,4-tetrahydroquinoline-6-yl)carbamate] | 3 to 30
Cc1ccc2c(c1Oc1cc(F)ccc1Cl)N(C)C(=O)C1(NC(N)=O)CC21 (stereo not drawn) [Example 32, 1-(4-(2-chloro-5-fluorophenoxy)-3,5-dimethyl-2-oxo-1,2,3,7b-tetrahydro-1aH-cyclopropa[c]quinoline-1a-yl)urea] | 3 to 30
CN1C(=O)C(NC(N)=O)Cc2cc(NC(=O)OC3(C)CC3)cc(Oc3cccc(C(F)(F)F)n3)c21 (stereo not drawn) [Example 8, 1-methylcyclopropyl (1-methyl-2-oxo-8-((6-(trifluoromethyl)pyridin-2-yl)oxy)-3-ureido-1,2,3,4-tetrahydroquinoline-6-yl)carbamate] | < 3
CN1C(=O)[C@H](NC(N)=O)Cc2sc(Br)c(Cc3cc(F)ccc3Cl)c21 [Example 39, (R)-1-(2-bromo-3-(2-chloro-5-fluorobenzyl)-4-methyl-5-oxo-4,5,6,7-tetrahydrothieno[3,2-b]pyridin-6-yl)urea] | < 3
Cc1ccc2cc(NC(N)=O)c(=O)n(C)c2c1Oc1cc(F)ccc1Cl [Example 31, 1-(8-(2-chloro-5-fluorophenoxy)-1,7-dimethyl-2-oxo-1,2-dihydroquinoline-3-yl)urea] | > 30
CC(C)OC(=O)Nc1cc2c(c(Oc3cccc(C(F)(F)F)n3)c1)N(C)C(=O)C(NC(N)=O)C2 (stereo not drawn) [Example 9, isopropyl (1-methyl-2-oxo-8-((6-trifluoromethylpyridin-2-yl)oxy)-3-ureido-1,2,3,4-tetrahydroquinoline-6-yl)carbamate] | < 3
CN1C(=O)C(CC(N)=O)Cc2cc(NC(=O)OC3CCCC3)cc(Oc3ccccc3C#N)c21 (stereo not drawn) [Example 3, cyclopentyl (3-(2-amino-2-oxoethyl)-8-(2-cyanophenoxy)-1-methyl-2-oxo-1,2,3,4-tetrahydroquinoline-6-yl)carbamate] | < 3
CN1C(=O)C(NC(N)=O)Cc2cc(NC(=O)OC3CCCC3)cc(Oc3ccccc3C#N)c21 (stereo not drawn) [Example 4, cyclopentyl (8-(2-cyanophenoxy)-1-methyl-2-oxo-3-ureido-1,2,3,4-tetrahydroquinoline-6-yl)carbamate] | < 3

More lines, now with the values ahead:

IC50 [µM] | Structure (SMILES)
< 3 | Cc1sc2c(c1Cc1cc(F)ccc1Cl)N(C)C(=O)[C@H](NC(N)=O)C2 [Example 38, (R)-1-(3-(2-chloro-5-fluorobenzyl)-2,4-dimethyl-5-oxo-4,5,6,7-tetrahydrothieno[3,2-b]pyridin-6-yl)urea]
< 3 | CC(c1cc(F)ccc1Cl)c1nsc2c1N(C)C(=O)[C@H](NC(N)=O)C2 (stereo partly drawn) [Example 43, 1-((6R)-3-(1-(2-chloro-5-fluorophenyl)ethyl)-4-methyl-5-oxo-4,5,6,7-tetrahydroisothiazolo[4 ,5-b]pyridine-6-yl)urea]
< 3 | Cc1ccc2c(c1Oc1cc(F)ccc1Cl)N(C)C(=O)[C@H](NC(=O)c1ccccc1)C2 [Example 20, (R)-N-(8-(2-chloro-5-fluorophenoxy)-1,7-dimethyl-2-oxo-1,2,3,4-tetrahydroquinoline-3-yl)b enzamide]
3 to 30 | CN1C(=O)[C@H](NC(N)=O)Cc2cccc(CCc3ccccc3)c21 [Example 35, (R)-1-(1-methyl-2-oxo-8-phenethyl-1,2,3,4-tetrahydroquinoline-3-yl)urea]
< 3 | C=C(c1ccccc1Cl)c1cccc2c1N(C)C(=O)[C@H](NC(N)=O)C2 [Example 13, (R)-1-(8-(1-(2-chlorophenyl)vinyl)-1-methyl-2-oxo-1,2,3,4-tetrahydroquinoline-3-yl)urea]
3 to 30 | CN1C(=O)C(NC(N)=O)Cc2cccc(C(C)(C)c3ccccc3)c21 (stereo not drawn) [Example 14, 1-(1-methyl-2-oxo-8-(2-phenylpropan-2-yl)-1,2,3,4-tetrahydroquinoline-3-yl)urea]
< 3 | CN1C(=O)[C@H](NC(N)=O)Cc2scc(Cc3cc(F)ccc3Cl)c21 [Example 37, (R)-1-(3-(2-chloro-5-fluorobenzyl)-4-methyl-5-oxo-4,5,6,7-tetrahydrothieno[3,2-b]pyridine-6-yl)urea]
> 30 | CN1C(=O)[C@H](NC(N)=O)Cc2cccc(OCc3ccccc3)c21 [Example 18, (R)-1-(8-(benzyloxy)-1-methyl-2-oxo-1,2,3,4-tetrahydroquinoline-3-yl)urea]
> 30 | CC(c1ccccc1)c1cccc2c1N(C)C(=O)N(CC(N)=O)C2 (stereo not drawn) [Example 30, 2-(1-methyl-2-oxo-8-(1-phenylethyl)-1,4-dihydroquinazoline-3(2H)-yl)acetamide]
> 30 | CN1C(=O)[C@H](NC(N)=O)Cc2cccc(C(O)c3ccccc3Cl)c21 (stereo partly drawn) [Example 12, 1-((3R)-8-((2-chlorophenyl)(hydroxy)methyl)-1-methyl-2-oxo-1,2,3,4-tetrahydroquinoline-3-yl)urea]
3 to 30 | NC(=O)NC1Cc2cccc(Oc3cc(F)ccc3Cl)c2-n2ccnc21 (stereo not drawn) [Example 28, 1-(9-(2-chloro-5-fluorophenoxy)-4,5-dihydroimidazo[1,2-a]quinoline-4-yl)urea]
3 to 30 | CC1(c2ccccc2)CCN2C(=O)[C@H](NC(N)=O)Cc3cccc1c32 (stereo partly drawn) [Example 16, 1-((2R)-7-methyl-3-oxo-7-phenyl-2,3,6,7-tetrahydro-1H,5H-pyrido[3,2,1-ij]quinoline-2-yl)ur ea]
< 3 | COC(=O)N[C@@H]1Cc2cccc(Oc3cc(F)ccc3Cl)c2N(C)C1=O [Example 22, methyl (R)-(8-(2-chloro-5-fluorophenoxy)-1-methyl-2-oxo-1,2,3,4-tetrahydroquinoline-3-yl)carbamate]
3 to 30 | CN1C(=O)[C@H](Nc2ncc[nH]2)Cc2cccc(Oc3cc(F)ccc3Cl)c21 [Example 34, (R)-3-((1H-imidazole-2-yl)amino)-8-(2-chloro-5-fluorophenoxy)-1-methyl-3,4-dihydroquinoline-2(1H)-one]
< 3 | CC1(c2ccccc2)C(=O)C(C)(C)N2C(=O)[C@H](NC(N)=O)Cc3cccc1c32 (stereo partly drawn) [Example 17, 1-((2R)-5,5,7-trimethyl-3,6-dioxo-7-phenyl-2,3,6,7-tetrahydro-1H,5H-pyrido[3,2,1-ij]quinoline-2-yl)urea]
